Test results reported in US8278337B2, “Substituted pyridines that are JNK inhibitors” (Merck Sharp & Dohme, priority 2006, dated 2012).
pIC50: −log10 of the molar value. Values joined by “and” are separate entries in the source; they are usually repeats but may differ in a detail not shown here. Equal entries are not always repeated. Where two headings read alike, the source gives them in different places.

Target: JNK1 (Homo sapiens, UniProt P45983)
Assay: DELFIA kinase assay, JNK1
Type: biochemical
Method: Assay DELFIA (Dissociation Enhanced Lanthanide Fluorescence Immuno-Assay) Assay:
Before initiation of kinase reactions, compounds were pre-incubated with the enzyme for 10 minutes. Pre-incubation reactions contained 50 mM HEPES pH 7.3, 10 mM MgCl2, 1 mM DTT, 75 mM NaCl, 1 mM EDTA, 1 mM EGTA, 0.01% CHAPS, 2 nM JNK1, 6 ug/mL biotinylated GST-ATF2, 0.1 mg/ml BSA, 5% DMSO and 0-100 μM compound in a total volume of 40 μL. After a 10 minute room temperature pre-incubation, 10 μL of 35 μM ATP was added to start the reaction (final concentration of ATP=7 uM). Reactions were incubated at room temperature for 30 minutes. A small aliquot (10 uL) was taken and quenched by adding into 190 uL of DELFIA Assay buffer containing 100 mM EDTA. The amount of phosphate transferred to biotinylated GST-ATF2 was measured using the Dissociation Enhanced Lanthanide Fluorescence Immuno-assay (DELFIA) from Perkin Elmer according to manufacturers protocol. Briefly, biotinylated GST-ATF2 was captured on streptavidin coated plates for 1 hour, washed twice, then incubated for 1 hour with a 1:1000 dilution of rabbit-anti-phospho-ATF2 antibody and a 1:3500 dilution of Europium-labeled anti-rabbit secondary antibody. Free antibody was removed with six washes, Europium was dissociated from the antibody, and Europium fluorescence was measured using an excitation wavelength of 340 nm and an emission wavelength of 615 nm. JNK2 and JNK3 kinase reactions were carried out similarly, with the exception that the final concentration of ATP was 4 uM and 2 uM, respectively.

[1] = DELFIA, biotinylated GST-ATF2 substrate, 10 minute pre-incubation, final ATP 7 uM
[2] = DELFIA assay, 2 nM JNK1, 7 uM ATP, 10 min pre-incubation
[3] = DELFIA assay, 2 nM JNK1, 7 uM ATP, 10 min pre-incubation, second table, read-out: JNK 1 IC50

Sequence of JNK1 (P45983 whole entry, species assumed): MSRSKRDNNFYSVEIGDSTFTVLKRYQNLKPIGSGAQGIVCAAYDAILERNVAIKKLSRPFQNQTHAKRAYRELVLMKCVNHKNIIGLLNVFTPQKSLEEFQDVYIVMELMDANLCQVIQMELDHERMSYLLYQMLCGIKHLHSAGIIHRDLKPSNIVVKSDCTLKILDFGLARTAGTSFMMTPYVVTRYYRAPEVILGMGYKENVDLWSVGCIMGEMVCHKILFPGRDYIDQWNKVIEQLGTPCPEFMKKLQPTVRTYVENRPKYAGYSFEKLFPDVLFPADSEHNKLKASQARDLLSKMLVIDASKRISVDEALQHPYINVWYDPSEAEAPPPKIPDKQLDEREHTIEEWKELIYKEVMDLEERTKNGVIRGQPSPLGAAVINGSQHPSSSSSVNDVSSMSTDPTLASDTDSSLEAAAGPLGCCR

| pIC50 [1] | pIC50 [2] | pIC50 [3] | SMILES |
| --- | --- | --- | --- |
| 7.72 to 8.40 and 7.01 to 8.40 |  |  | CC(C)NC(=O)c1cccc(C(=O)NCc2cnn(-c3ccc4nc(C(F)(F)F)n(C)c4c3)c2)n1 [Compound 234] |
| 6.02 to 6.99 |  |  | C[C@@H](CNC(=O)c1cccc(C(=O)NCc2ccc3nc(N)sc3c2)n1)c1ccccc1 [Compound 70] |
| 7.01 to 8.40 |  |  | Nc1nc2ccc(CNC(=O)c3cccc(C(=O)NC4CCCCC4)n3)cc2s1 [Compound 12] |
| 6.02 to 6.99 |  |  | CC(C)NC(=O)c1cccc(C(=O)NCc2cncc(Br)c2)n1 [Compound 254] |
| < 6.00 |  |  | CCOC(=O)N1CCC(NC(=O)c2cccc(Nc3cccnc3)n2)CC1 [Compound 388] |
| < 6.00 and 5.00 to 5.99 |  |  | CC(C)NC(=O)c1cccc(C(=O)NCC2CCN(c3ccc(S(C)(=O)=O)cc3)CC2)n1 [Compound 422] |
| 7.01 to 8.40 |  |  | CC(C)NC(=O)c1cccc(C(=O)NCc2cncc(-c3ccc(C#N)cc3)c2)n1 [Compound 257] |
| 7.01 to 8.40 |  |  | CC(C)NC(=O)c1cccc(C(=O)NCc2ccc3nc(NC(C)C)sc3c2)n1 [Compound 201] |
| 7.01 to 8.40 |  |  | CC(C)NC(=O)c1cccc(C(=O)NCc2cnn(-c3ccc(Cl)cc3)c2)n1 [Compound 133] |
| 6.02 to 6.99 |  |  | CC(C)NC(=O)c1cccc(C(=O)NCc2ccc(Cl)cc2)n1 [Compound 97] |
| 6.02 to 6.99 |  |  | COC(=O)Nc1cccc(C(=O)NCc2cnn(-c3cccc(C(F)(F)F)c3)c2)n1 [Compound 355] |
| < 6.00 |  |  | COC(=O)c1ccc(C2CCN(C(=O)c3cccc(C(=O)NCc4ccc5nc(N)sc5c4)n3)CC2O)cc1 (stereo not drawn) [Compound 33] |
| 7.72 to 8.40 and 7.01 to 8.40 |  |  | CC(C)NC(=O)c1cccc(C(=O)NCc2cnn(-c3cc(Cl)cc(Cl)c3)c2)n1 [Compound 138] |
| 6.02 to 6.99 |  |  | CC(C)NC(=O)c1cccc(C(=O)NCc2ccc(-c3cccc(S(C)(=O)=O)c3)nc2)n1 [Compound 180] |
| < 6.00 |  |  | CCOC(=O)N1CCC(NC(=O)c2cccc(C(=O)N(C)C)n2)CC1 [Compound 38] |
| < 6.00 and 5.00 to 5.99 |  |  | CS(=O)(=O)c1ccc(CNC(=O)c2cccc(-c3ccccc3F)n2)cc1 [Compound 316] |
| 7.72 to 8.40 and 7.01 to 8.40 |  |  | CC(C)NC(=O)c1cccc(C(=O)NCc2cnn(-c3ccc(S(=O)(=O)N4CCNCC4)cc3)c2)n1 [Compound 245] |
| 6.02 to 6.99 |  |  | Cc1nc2ccc(CNC(=O)c3cccc(C(=O)NC(C)C)n3)cc2n1C [Compound 128] |
| < 6.00 |  |  | Nc1nc2ccc(CNC(=O)c3cccc(C(=O)O)n3)cc2s1 [Compound 46] |
| 6.02 to 6.99 |  |  | CC(C)NC(=O)c1cccc(C(=O)N[C@H](C)c2ccc(O)cc2)n1 [Compound 123] |
| 7.72 to 8.40 and 7.01 to 8.40 | 8.15 | 8.15 | CC(C)NC(=O)c1cccc(C(=O)NCc2cnn(-c3ccc(S(=O)(=O)N4CCNCC4)c(Cl)c3)c2)n1 [Compound 248] |
| 7.01 to 8.40 |  |  | CC(C)NC(=O)c1cccc(C(=O)NCc2cnn(-c3ccc(CN)cc3)c2)n1 [Compound 143] |
| 7.01 to 8.40 |  |  | CC(C)NC(=O)c1cccc(C(=O)NCc2cccc(-c3cccc(S(C)(=O)=O)c3)c2)n1 [Compound 191] |

| pIC50 [1] | pIC50 [2] | pIC50 [3] | SMILES |
| --- | --- | --- | --- |
| 6.02 to 6.99 |  |  | CNc1cccc(C(=O)NCc2cnn(-c3cccc(C(F)(F)F)c3)c2)n1 [Compound 362] |
| 7.72 to 8.40 and 7.01 to 8.40 |  |  | CC(C)NC(=O)c1cccc(C(=O)NCc2cnn(-c3ccc4nc(C(C)C)n(C)c4c3)c2)n1 [Compound 235] |
| 7.01 to 8.40 |  |  | CC(C)NC(=O)c1cccc(C(=O)NCc2cnn(-c3ccc([S+](C)[O-])cc3)c2)n1 (stereo not drawn) [Compound 154] |
| 6.02 to 6.99 |  |  | Nc1nc2ccc(CNC(=O)c3cccc(C(=O)N[C@H](CO)Cc4ccccc4)n3)cc2s1 [Compound 23] |
| 6.02 to 6.99 |  |  | CC(C)NC(=O)c1cccc(C(=O)NCc2ccc(-c3ccccc3)cc2)n1 [Compound 112] |
| 5.00 to 5.99 and < 6.00 |  |  | Cc1nn(C)c(C)c1CNC(=O)c1cccc(C(=O)NC(C)C)n1 [Compound 102] |
| 5.00 to 5.99 and < 6.00 |  |  | CS(=O)(=O)c1ccc(CNC(=O)c2cccc(-n3cncn3)n2)cc1 [Compound 326] |
| 6.02 to 6.99 |  |  | CC(C)NC(=O)c1cccc(C(=O)NCc2cccc(Oc3ccccn3)c2)n1 [Compound 126] |
| < 6.00 |  |  | CCOC(=O)N1CCC(NC(=O)c2cccc(NCCc3ccncc3)n2)CC1 [Compound 393] |
| 6.02 to 6.99 |  |  | Cc1nc2ccc(CNC(=O)c3cccc(-n4cc(I)cn4)n3)cc2[nH]1 [Compound 290] |
| 6.02 to 6.99 |  |  | CC(C)NC(=O)c1cccc(C(=O)NCc2ccc(Cl)nc2)n1 [Compound 99] |
| < 6.00 |  |  | CCNC(=O)N1CCC(NC(=O)c2cccc(C(=O)NCc3ccc(S(C)(=O)=O)cc3)n2)CC1 [Compound 56] |
| < 6.00 |  |  | CCOC(=O)N1CCC(NC(=O)c2cccc(NCc3cccnc3)n2)CC1 [Compound 391] |
| 7.01 to 8.40 and 7.72 to 8.40 | 8.10 | 8.10 | Cc1nc2ccc(-n3cc(CNC(=O)c4cccc(C(=O)NC(C)C)n4)cn3)cc2n1C(C)C [Compound 228] |
| 6.02 to 6.99 |  |  | CC(CO)NC(=O)c1cccc(C(=O)NCc2ccc3nc(N)sc3c2)n1 (stereo not drawn) [Compound 18] |
| 6.02 to 6.99 |  |  | CS(=O)(=O)c1ccc(CNC(=O)c2cccc(-n3ncc4ccccc43)n2)cc1 [Compound 322] |
| 6.02 to 6.99 |  |  | CC(C)NC(=O)c1cccc(C(=O)NCc2cccnc2)n1 [Compound 93] |
| 6.02 to 6.99 |  |  | CC(C)[C@H](CO)NC(=O)c1cccc(C(=O)NCc2ccc3nc(N)sc3c2)n1 [Compound 50] |
| 7.01 to 8.40 |  |  | CCOC(=O)Nc1nc2ccc(CNC(=O)c3cccc(C(=O)NC(C)C)n3)cc2s1 [Compound 205] |
| 7.72 to 8.40 and 7.01 to 8.40 |  | 8.15 | CC(C)NC(=O)c1cccc(C(=O)NCc2cnn(-c3cnc4ccccc4c3)c2)n1 [Compound 144] |
| 6.02 to 6.99 |  |  | CC(C)NC(=O)c1cccc(C(=O)NCc2ccc(-c3ccc(S(C)(=O)=O)cc3)cc2)n1 [Compound 196] |
| < 6.00 |  |  | CCOC(=O)N1CCC(NC(=O)c2cccc(C(=O)NCc3ccc4c(c3)OCO4)c2)CC1 [Compound 372] |
| 7.01 to 8.40 |  |  | CC(C)NC(=O)c1cccc(C(=O)NCc2cnn(-c3cccc(S(C)(=O)=O)c3)c2)n1 [Compound 136] |

| pIC50 [1] | pIC50 [2] | pIC50 [3] | SMILES |
| --- | --- | --- | --- |
| 6.02 to 6.99 |  |  | CC(C)NC(=O)c1cccc(C(=O)NCC2CCN(C(=O)OC(C)(C)C)CC2)n1 [Compound 94] |
| 6.02 to 6.99 |  |  | CCOC(=O)N1CCC(NC(=O)c2cccc(C(=O)NCc3ccc(S(C)(=O)=O)cc3)n2)CC1 [Compound 43] |
| 6.02 to 6.99 |  |  | CC(C)NC(=O)c1cccc(C(=O)NCc2ccc(-c3cccc(C#N)c3)cc2)n1 [Compound 194] |
| 6.02 to 6.99 |  |  | C[C@H](CO)NC(=O)c1cccc(C(=O)NCc2ccc3nc(N)sc3c2)n1 [Compound 49] |
| < 6.00 and 5.00 to 5.99 |  |  | CC(C)NC(=O)c1cccc(C(=O)NCC2CCN(c3cccc(S(C)(=O)=O)c3)CC2)n1 [Compound 421] |
| 6.02 to 6.99 |  |  | Cc1ccc(CNC(=O)c2cccc(C(=O)NC(C)C)n2)cc1F [Compound 110] |
| < 6.00 |  |  | Nc1nc2ccc(CNC(=O)c3cccc(C(=O)NC4CCN(Cc5ccccc5)CC4)n3)cc2s1 [Compound 30] |
| 6.02 to 6.99 |  |  | CC(C)NC(=O)c1cccc(C(=O)NCc2cnn(-c3cc(F)cc(C#N)c3)c2)n1 [Compound 162] |
| 7.01 to 8.40 |  |  | CC[C@@H](C)NC(=O)c1cccc(C(=O)NCc2ccc3nc(N)sc3c2)n1 [Compound 8] |
| 6.02 to 6.99 |  |  | CC(C)NC(=O)c1cccc(C(=O)NCc2ccc(-c3ccc(C#N)cc3)cc2)n1 [Compound 195] |
| 6.02 to 6.99 |  |  | COc1ccc(-c2cccc(C(=O)NCc3ccc(S(C)(=O)=O)cc3)n2)c(F)c1 [Compound 331] |
| 6.02 to 6.99 |  |  | CC(=O)Nc1cccc(C(=O)NCc2cnn(-c3cccc(C(F)(F)F)c3)c2)n1 [Compound 353] |
| 7.01 to 8.40 |  |  | CC(C)NC(=O)c1cccc(C(=O)NCc2ccc3sc(NC(N)=O)nc3c2)n1 [Compound 87] |
| 6.02 to 6.99 |  |  | O=C(NCc1nc2ccccc2s1)c1cccc(-c2nc3ccccc3[nH]2)n1 [Compound 378] |
| < 6.00 |  |  | CC(O)CNC(=O)c1cccc(C(=O)NCc2ccc3nc(N)sc3c2)n1 (stereo not drawn) [Compound 19] |
| < 6.00 |  |  | CS(=O)(=O)c1ccc(CNC(=O)c2cccc(C(=O)NC3CCN(S(=O)(=O)Cc4ccccc4)CC3)n2)cc1 [Compound 61] |
| 7.01 to 8.40 |  |  | CC(C)NC(=O)c1cccc(C(=O)NCc2cnn(-c3cccc(F)c3)c2)n1 [Compound 139] |
| < 6.00 and 5.00 to 5.99 |  |  | CC(C)NC(=O)c1cccc(C(=O)NCc2ccnn2-c2ccc(S(C)(=O)=O)cc2)n1 [Compound 310] |
| < 6.00 and 5.00 to 5.99 |  |  | CC(C)C(=O)N(C(=O)C(C)C)c1cccc(C(=O)NCc2cnn(-c3cccc(C(F)(F)F)c3)c2)n1 [Compound 364] |
| 6.02 to 6.99 |  |  | CNC(=S)N1CCC(NC(=O)c2cccc(C(=O)NCc3ccc(S(C)(=O)=O)cc3)n2)CC1 [Compound 57] |
| 6.02 to 6.99 |  |  | Nc1nc2ccc(CNC(=O)c3cccc(C(=O)NC4CC4)n3)cc2s1 [Compound 48] |
| 6.02 to 6.99 |  |  | CC(C)NC(=O)c1cccc(C(=O)NCc2ccc(N3CCCC3)nc2)n1 [Compound 114] |

| SMILES | pIC50 [1] | pIC50 [2] | pIC50 [3] |
| --- | --- | --- | --- |
| CC(C)NC(=O)c1cccc(C(=O)NCC2CCN(c3ccc(C#N)cc3)CC2)n1 [Compound 420] | < 6.00 and 5.00 to 5.99 |  |  |
| CCNC(=O)Oc1cccc2ccc(C(=O)NCc3ccc(S(C)(=O)=O)cc3)nc12 [Compound 384] | < 6.00 and 5.00 to 5.99 |  |  |
